{
  "source": "patent US11006626B2",
  "about": "“Compounds for protection of cells” (Sulfateq B.V., priority 2012, dated 2021)",
  "key": {"[1]": {"tested_on": "Human Embryo Kidney (HEK) 293 cells", "experiment": "Hypothermia/rewarming injury of HEK cells, trypan blue viability count", "format": "cell-based", "procedure": "Human Embryo Kidney (HEK) 293 cells were cultured in DMEM cell culture medium (Life Technologies, 41965-052) supplemented with fetal calf serum, penicillin and streptomycin. Cells were seeded at a density of 0.8-1.2E6 mL-1 in 25 cm2 polystyrene flasks, placed in a 37° C.\nThe compounds were dissolved in dimethyl sulfoxide (DMSO) to several concentrations. Before commencing experiments, this stock solution was dissolved in pre-warmed DMEM and further diluted to obtain a concentration range from 10 nM-1 mM. Cell culture medium was then replaced by these dilutions and cells were incubated in the presence of the compound for 1 hour. After incubation, lids were closed tightly and flasks were placed in a 4° C. room and cooled for 24 hours. After this cooling period, cells were placed back in the 37° C. incubator with lids closed and were allowed to rewarm for another 24 hours.\nAfter this rewarming period, microscopic images were taken to assess cell morphology (Nikon D5100, Nikon Diaphot-TMD). Cell culture medium was collected and centrifuged (4 minutes, 2000 rpm). The supernatant was collected and pH was immediately measured to prevent equilibration of the pH by the carbonate buffer in the medium, while the pelleted cells were resuspended in 5 mL of PBS. Cells remaining in the flask were washed twice with phosphate buffered saline (PBS) while the washing product was discarded. Subsequently, the cells were trypsinized by addition of 0.5 mL of trypsine and pooled with the resuspended pellet. This cell suspension was then stained at a final concentration of 0.2% trypan blue (Sigma, T8154), followed by manual assessment of viability and cell number on a Bürker-Türk hemocytometer. To conclude the assay, cell culture medium glucose levels were measured (Roche Accutrend Plus) as an indication of metabolic activity. All of these steps were performed with care to prevent mechanical stress to influence or alter the viability of the cells after cooling.\nThe amount represents the % cells that survived. […] In the control, the same procedure was applied to two badges of HEK cells."}, "apherese blood platelets": {"tested_on": "apherese blood platelets", "experiment": "Apheresis platelets stored with Sul 136, Annexin V test by flow cytometry", "format": "cell-based", "settings": "stored at 4° C. with Sul 136", "method": "300 μM suspension of Sul 136 is added with a procedure, which keeps the bag content sterile and the Sul 136 is kept in suspension by frequent whirling and stored at 37° C. before it is added to the freshly harvested platelets. The Sul 136 suspension is added to three platelet bags directly from the bag. After addition, the content of the platelet bag is gently mixed. After 2 hours the first sample is drawn with a seal-docked sample bag. The sample bag is disconnected by welding and from this sample bag the samples are taken for hematology analyzing, aggregometer tests and the flow-cytometry tests. Swirling in the bag is reported by experience of the laboratory worker in the standard format. Platelets without Sul 136 put on a flatbed shaker and stored at room temperature were used as control. Another control is stored at 4° C. Platelet samples in which Sul 136 is added, are stored without shaking in a refrigerator at 4° C.\nOn a Beckman Coulter FC 500 flow cytometer using the Roche Annexin-V FLUOS Staining Kit\nA mix of 20 μl Annexin-V fluorescein from Roche kit into 1 ml incubation buffer was made and 20 μl propidium iodide solution was added. 2 ml of platelet concentrate was centrifuged on standard Eppendorf centrifuge and the supernatant was discarded.\n1 ml PBS buffer was added and cell concentration was checked whether it was around 1.000.000. This was diluted 100 times with the prepared Annexin-V fluorescein and propidium iodide mix and incubated for 15 minutes. 500 μl incubation buffer from kit was added and cell analysis was made in a flowcytometer."}},
  "data": [
    {"smiles": "Cc1c(C)c2c(c(C)c1O)CCC(C)(C(=O)N1CCN(CC(=O)O)CC1)O2", "note": "(racemic) [SUL - 136, 2-(4-(6-hydroxy-2,5,7,8-tetramethylchroman-2-carbonyl)piperazin-1-yl)acetic acid]", "values": [
      {"measurement": "viability at 0.01 µM", "setting": "[1]; Homo sapiens, HEK293, 24 h, 10 nM, 24 h at 4° C., 24 h rewarming, read-out: % cells that survived", "value": 99.6, "unit": "%"},
      {"measurement": "viability at 0.1 µM", "setting": "[1]; Homo sapiens, HEK293, 24 h, 100 nM, 24 h at 4° C., 24 h rewarming, read-out: % cells that survived", "value": 100, "unit": "%"},
      {"measurement": "viability at 1 µM", "setting": "[1]; Homo sapiens, HEK293, 24 h, 1 μM, 24 h at 4° C., 24 h rewarming, read-out: % cells that survived", "value": 98.4, "unit": "%"},
      {"measurement": "viability at 10 µM", "setting": "[1]; Homo sapiens, HEK293, 24 h, 10 μM, 24 h at 4° C., 24 h rewarming, read-out: % cells that survived", "value": 99.5, "unit": "%"},
      {"measurement": "viability at 100 µM", "setting": "[1]; Homo sapiens, HEK293, 24 h, 100 μM, 24 h at 4° C., 24 h rewarming, read-out: % cells that survived", "value": 99.3, "unit": "%"},
      {"measurement": "viability at 1000 µM", "setting": "[1]; Homo sapiens, HEK293, 24 h, 1 mM, 24 h at 4° C., 24 h rewarming, read-out: % cells that survived", "value": 100, "unit": "%"},
      {"measurement": "% cells that survived, Mean", "setting": "[1]; mean over the tested concentrations", "value": 99, "unit": "%"},
      {"measurement": "Annexin (% positive)", "setting": "apherese blood platelets; Donor 2, Day 1", "value": 5.98, "unit": "%"},
      {"measurement": "Annexin (% positive)", "setting": "apherese blood platelets; Donor 2, Day 2", "value": 10.96, "unit": "%"},
      {"measurement": "Annexin (% positive)", "setting": "apherese blood platelets; Donor 2, Day 3", "value": 19.56, "unit": "%"},
      {"measurement": "Annexin (% positive)", "setting": "apherese blood platelets; Donor 2, Day 5", "value": 32.11, "unit": "%"},
      {"measurement": "Annexin (% positive)", "setting": "apherese blood platelets; Donor 2, Day 8", "value": 45.71, "unit": "%"},
      {"measurement": "Annexin (% positive)", "setting": "apherese blood platelets; Donor 2, Day 10", "value": 53.96, "unit": "%"},
      {"measurement": "Annexin (% positive)", "setting": "apherese blood platelets; Donor 2, Day 12", "value": 62.97, "unit": "%"},
      {"measurement": "Annexin (% positive)", "setting": "apherese blood platelets; Donor 2, Day 19", "value": 72.67, "unit": "%"},
      {"measurement": "Annexin (% positive)", "setting": "apherese blood platelets; Donor 3, Day 1", "value": 5.14, "unit": "%"},
      {"measurement": "Annexin (% positive)", "setting": "apherese blood platelets; Donor 3, Day 2", "value": 8.68, "unit": "%"},
      {"measurement": "Annexin (% positive)", "setting": "apherese blood platelets; Donor 3, Day 3", "value": 14.34, "unit": "%"},
      {"measurement": "Annexin (% positive)", "setting": "apherese blood platelets; Donor 3, Day 5", "value": 27.77, "unit": "%"},
      {"measurement": "Annexin (% positive)", "setting": "apherese blood platelets; Donor 3, Day 8", "value": 41.97, "unit": "%"},
      {"measurement": "Annexin (% positive)", "setting": "apherese blood platelets; Donor 3, Day 10", "value": 62.65, "unit": "%"},
      {"measurement": "Annexin (% positive)", "setting": "apherese blood platelets; Donor 3, Day 12", "value": 70.33, "unit": "%"},
      {"measurement": "Annexin (% positive)", "setting": "apherese blood platelets; Donor 3, Day 19", "value": 80.99, "unit": "%"},
      {"measurement": "Annexin (% positive)", "setting": "apherese blood platelets; donor 1, Day 1", "value": 4.51, "unit": "%"},
      {"measurement": "Annexin (% positive)", "setting": "apherese blood platelets; donor 1, Day 2", "value": 14.48, "unit": "%"},
      {"measurement": "Annexin (% positive)", "setting": "apherese blood platelets; donor 1, Day 3", "value": 18.24, "unit": "%"},
      {"measurement": "Annexin (% positive)", "setting": "apherese blood platelets; donor 1, Day 5", "value": 20.38, "unit": "%"},
      {"measurement": "Annexin (% positive)", "setting": "apherese blood platelets; donor 1, Day 8", "value": 34.56, "unit": "%"},
      {"measurement": "Annexin (% positive)", "setting": "apherese blood platelets; donor 1, Day 10", "value": 43.52, "unit": "%"},
      {"measurement": "Annexin (% positive)", "setting": "apherese blood platelets; donor 1, Day 12", "value": 56.91, "unit": "%"},
      {"measurement": "Annexin (% positive)", "setting": "apherese blood platelets; donor 1, Day 19", "value": 88.34, "unit": "%"}
    ]}
  ]
}
